Blank lines part the entries; values can stand above or below the compound they belong to.
What was measured:
[1] = target: Metallo-beta-lactamase type 2 (Bacteria, UniProt C7C422)
Description: Inhibition of C-terminal 6His-tagged full length NDM-1 (unknown origin) expressed in Escherichia coli BL21-DE3 using nitrocefin as substrate incubated for 15 mins followed by substrate addition by absorbance based microplate reader analysis

[2] = target: T1, 72 kDa type IV collagenase (Homo sapiens, UniProt P08253); assay: Inhibition of human recombinant MMP-2 CD at 10 uM using OMNIMMP as substrate incubated for 30 mins by fluorescence based analysis relative to control
Target sequence in this assay (P08253 110-660 limits assumed): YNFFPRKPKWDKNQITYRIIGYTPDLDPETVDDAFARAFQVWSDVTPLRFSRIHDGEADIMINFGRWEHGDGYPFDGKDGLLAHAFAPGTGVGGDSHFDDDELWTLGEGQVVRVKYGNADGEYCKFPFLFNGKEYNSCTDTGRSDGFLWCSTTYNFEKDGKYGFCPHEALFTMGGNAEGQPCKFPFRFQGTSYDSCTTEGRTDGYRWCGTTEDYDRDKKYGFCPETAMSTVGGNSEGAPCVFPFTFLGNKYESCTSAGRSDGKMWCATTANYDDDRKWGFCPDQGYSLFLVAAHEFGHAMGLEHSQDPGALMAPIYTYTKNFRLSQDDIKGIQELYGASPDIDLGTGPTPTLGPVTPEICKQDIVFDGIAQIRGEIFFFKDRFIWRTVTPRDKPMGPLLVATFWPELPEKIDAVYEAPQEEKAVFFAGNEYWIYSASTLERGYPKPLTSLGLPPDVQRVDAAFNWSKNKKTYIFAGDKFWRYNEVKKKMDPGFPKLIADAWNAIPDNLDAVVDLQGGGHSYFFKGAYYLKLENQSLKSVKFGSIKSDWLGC

[3] = target: Carbonic anhydrase 2 (Homo sapiens) (UniProt P00918); assay: Inhibition of human CA2 at 10 uM using pNPA as substrate preincubated for 15 mins followed by substrate by absorbance based analysis relative to control
[4] = target: Histone deacetylase 1 (Homo sapiens) (UniProt Q13547); assay: Inhibition of C-terminal 6His/FLAG-tagged human recombinant full-length HDAC1 (1 to 482(end) residues) at 10 uM using Boc-Lys-(Ac)-AMC as substrate incubated for 10 mins followed by substrate addition measured after 1 hr by fluorescence based analysis relative to control; conditions: time 70.0 min
Chain of Histone deacetylase 1 (Homo sapiens) (Q13547 whole entry): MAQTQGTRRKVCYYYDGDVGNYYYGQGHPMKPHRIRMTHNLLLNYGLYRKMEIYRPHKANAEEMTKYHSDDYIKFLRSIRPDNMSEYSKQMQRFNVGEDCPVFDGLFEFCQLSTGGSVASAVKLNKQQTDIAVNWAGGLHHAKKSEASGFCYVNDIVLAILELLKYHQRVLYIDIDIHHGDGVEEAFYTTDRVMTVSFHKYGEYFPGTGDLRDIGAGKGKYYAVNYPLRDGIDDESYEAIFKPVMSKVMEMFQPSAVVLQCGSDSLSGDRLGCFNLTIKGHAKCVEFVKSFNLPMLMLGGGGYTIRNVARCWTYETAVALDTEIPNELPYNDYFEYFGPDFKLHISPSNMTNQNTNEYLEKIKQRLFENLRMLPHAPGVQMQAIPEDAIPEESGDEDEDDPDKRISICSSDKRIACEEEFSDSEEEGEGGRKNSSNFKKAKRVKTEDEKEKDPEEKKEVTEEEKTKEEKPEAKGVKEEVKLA

[5] = Inhibition of VIM-2 (unknown origin) incubated for 15 mins by absorbance based microplate reader analysis; design: species or system Bacteria
[6] = Inhibition of IMP-1 (unknown origin) expressed in Escherichia coli BL21-DE3 incubated for 15 mins by absorbance based microplate reader analysis; design: species or system Bacteria
[7] = Inhibition of GIM1 (unknown origin) incubated for 15 mins by absorbance based microplate reader analysis; design: species or system Bacteria
[8] = target: T1, 72 kDa type IV collagenase; assay: Binding affinity to human recombinant MMP-2 CD assessed as inhibition constant using OMNIMMP as substrate incubated for 30 mins by fluorescence based analysis
Target sequence in this assay (P08253 whole entry): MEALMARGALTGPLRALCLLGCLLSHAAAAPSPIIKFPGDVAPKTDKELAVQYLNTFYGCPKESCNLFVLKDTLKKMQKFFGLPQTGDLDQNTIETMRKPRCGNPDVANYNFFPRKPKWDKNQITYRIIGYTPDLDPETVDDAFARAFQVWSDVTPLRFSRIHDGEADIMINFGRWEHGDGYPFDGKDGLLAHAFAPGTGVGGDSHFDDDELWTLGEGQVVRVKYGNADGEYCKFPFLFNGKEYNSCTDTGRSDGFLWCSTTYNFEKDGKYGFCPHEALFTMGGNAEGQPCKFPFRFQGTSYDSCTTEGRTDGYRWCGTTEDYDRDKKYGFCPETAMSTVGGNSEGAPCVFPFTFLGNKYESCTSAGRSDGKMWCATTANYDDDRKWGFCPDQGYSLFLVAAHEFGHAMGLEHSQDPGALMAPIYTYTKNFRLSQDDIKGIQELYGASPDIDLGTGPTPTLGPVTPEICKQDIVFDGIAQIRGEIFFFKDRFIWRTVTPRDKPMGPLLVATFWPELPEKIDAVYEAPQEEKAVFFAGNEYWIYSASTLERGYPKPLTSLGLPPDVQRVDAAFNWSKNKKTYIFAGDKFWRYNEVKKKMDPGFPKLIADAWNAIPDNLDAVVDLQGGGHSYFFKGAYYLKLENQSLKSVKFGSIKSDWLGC

[9] = Selectivity ratio of Ki for human recombinant MMP-2 CD to Ki for C-terminal 6His-tagged full length NDM-1 (unknown origin)

Chain of Metallo-beta-lactamase type 2 (C7C422 whole entry): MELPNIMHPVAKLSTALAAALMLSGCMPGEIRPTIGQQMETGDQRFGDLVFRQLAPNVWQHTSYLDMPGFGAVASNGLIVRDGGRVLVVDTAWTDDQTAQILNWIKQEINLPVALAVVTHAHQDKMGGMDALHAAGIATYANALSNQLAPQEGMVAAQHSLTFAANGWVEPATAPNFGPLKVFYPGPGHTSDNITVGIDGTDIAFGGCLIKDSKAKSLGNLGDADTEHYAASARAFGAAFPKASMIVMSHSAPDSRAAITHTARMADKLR

Structure (SMILES): O=C(NOCc1ccccc1)c1ccccn1
- IC50 [1]: 530 µM

Structure (SMILES): Oc1c(I)cc(I)c2cccnc12 [IODOQUINOL]
- IC50 [1]: 2.5 µM

Structure (SMILES): O=C(NOCc1ccccc1)c1ccc2c(Br)cc(Br)c(O)c2n1
- IC50 [1]: 1.47 µM

Structure (SMILES): CS(=O)(=O)Nc1cccc2c(-c3cccc(N)c3)cc(C(=O)O)nc12
- IC50 [1]: 0.71 µM

Structure (SMILES): CS(=O)(=O)Nc1cccc2c(Cl)cc(C(=O)O)nc12
- IC50 [5]: 0.47 µM
- inhibition [2]: 90%
- inhibition [3]: < 5%
- IC50 [1]: 1 µM
- inhibition [4]: < 5%
- IC50 [6]: 8.11 µM
- IC50 [7]: 21.1 µM

Structure (SMILES): Cc1ccc2cccc(O)c2n1 [8-HYDROXY QUINALDINE]
- IC50 [1]: 274 µM

Structure (SMILES): O=C(O)c1ccccn1 [2-PICOLINIC ACID]
- IC50 [1]: 303 µM

Structure (SMILES): CS(=O)(=O)Nc1ccc(I)c2ccc(C(=O)O)nc12
- inhibition [2]: 94%
- inhibition [3]: < 5%
- IC50 [1]: 1.4 µM
- inhibition [4]: < 5%

Structure (SMILES): CS(=O)(=O)Nc1cc(Cl)c(Cl)c2ccc(C(=O)O)nc12
- IC50 [5]: 0.47 µM
- inhibition [2]: 91%
- inhibition [3]: < 5%
- IC50 [1]: 0.95 µM
- inhibition [4]: < 5%
- IC50 [6]: 5.23 µM
- IC50 [7]: 11.2 µM

Structure (SMILES): CS(=O)(=O)Nc1c(Cl)cc(Cl)c2ccc(C(=O)O)nc12
- IC50 [1]: > 1000 µM

Structure (SMILES): O=C(NOCc1ccccc1)c1cccc(C(=O)NOCc2ccccc2)n1
- inhibition [2]: < 5%
- inhibition [3]: < 5%
- IC50 [1]: 7.2 µM
- inhibition [4]: < 5%
- IC50 [6]: 102 µM

Structure (SMILES): O=C([O-])CN(CCN(CC(=O)[O-])CC(=O)O)CC(=O)O.[Na+].[Na+]
- inhibition [2]: 23%
- inhibition [3]: < 5%
- inhibition [4]: < 5%

Structure (SMILES): CONC(=O)c1ccccn1
- IC50 [1]: 1240 µM

Structure (SMILES): CONC(=O)c1cccc(C(=O)O)n1
- IC50 [1]: 27.8 µM

Structure (SMILES): O=C(O)c1ccc2ccc3c(c2n1)NS(=O)(=O)c1ccc(C(F)(F)F)cc1-3
- inhibition [2]: > 90%
- inhibition [3]: < 5%
- IC50 [1]: 0.41 µM
- Ki [8]: 27.6 µM
- Ratio Ki [9]: 135
- inhibition [4]: < 5%

Structure (SMILES): C[C@H](CS)C(=O)N1CCC[C@H]1C(=O)O
- inhibition [2]: < 5%
- inhibition [3]: < 5%
- inhibition [4]: < 5%

Structure (SMILES): CONC(=O)c1cccc(C(=O)NOC)n1
- IC50 [1]: 84.3 µM

Structure (SMILES): O=C(NO)c1cccc(C(=O)NO)n1
- IC50 [1]: > 1000 µM

Structure (SMILES): O=C(O)c1ccc2c(Cl)cc(I)c(O)c2n1
- IC50 [1]: 0.48 µM

Structure (SMILES): O=C(O)c1ccc2c(I)cc(I)c(O)c2n1
- inhibition [2]: 5%
- inhibition [3]: < 5%
- IC50 [1]: 0.3 µM
- inhibition [4]: < 5%

Structure (SMILES): O=C(O)c1ccc2c(Br)cc(Br)c(O)c2n1
- IC50 [1]: 0.46 µM

Structure (SMILES): CONC(=O)c1ccc2cccc(O)c2n1
- IC50 [1]: 13.7 µM

Structure (SMILES): O=C(O)c1cccc(C(=O)O)n1 [DIPICOLINIC ACID]
- IC50 [5]: 0.45 µM
- inhibition [2]: < 5%
- inhibition [3]: < 5%
- IC50 [1]: 7 µM
- inhibition [4]: < 5%
- IC50 [6]: 9.75 µM
- IC50 [7]: 15.6 µM

Structure (SMILES): CON(C)C(=O)c1ccccn1
- IC50 [1]: > 2000 µM

Structure (SMILES): O=C(O)c1cccc(C(=O)NOCc2ccccc2)n1
- IC50 [1]: 22.7 µM

Structure (SMILES): O=C(O)c1ccc2c(Cl)cc(Cl)c(O)c2n1
- IC50 [5]: 0.16 µM
- inhibition [2]: 20%
- inhibition [3]: < 5%
- IC50 [1]: 0.54 µM
- inhibition [4]: < 5%
- IC50 [6]: 0.48 µM
- IC50 [7]: 1.26 µM

Next, values leading:

- IC50 [1]: 0.37 µM
Structure (SMILES): O=C(O)c1cc(-c2cccc(F)c2)c2cccc(NS(=O)(=O)c3ccccn3)c2n1

- IC50 [1]: 0.44 µM
Structure (SMILES): O=C(O)c1ccc2cccc(NS(=O)(=O)c3ccccc3Cl)c2n1

- inhibition [2]: 95%
- inhibition [3]: < 5%
- IC50 [1]: 2.1 µM
- inhibition [4]: < 5%
Structure (SMILES): CS(=O)(=O)Nc1ccc(-c2cccc(N)c2)c2ccc(C(=O)O)nc12

- IC50 [1]: 0.56 µM
Structure (SMILES): O=C(O)c1ccc2cccc(NS(=O)(=O)c3cccc([N+](=O)[O-])c3)c2n1

- IC50 [1]: 1.6 µM
Structure (SMILES): Cc1ccc2cccc(NS(=O)(=O)c3ccccc3)c2n1

- IC50 [1]: 0.25 µM
Structure (SMILES): Nc1cccc(-c2cc(C(=O)O)nc3c(NS(=O)(=O)c4ccccn4)cccc23)c1

- IC50 [1]: 0.47 µM
Structure (SMILES): N#Cc1ccccc1S(=O)(=O)Nc1cccc2ccc(C(=O)O)nc12

- IC50 [1]: 1.7 µM
Structure (SMILES): COC(=O)c1ccc2cccc(NS(=O)(=O)c3cccc(F)c3)c2n1

- IC50 [1]: 11.2 µM
- IC50 [6]: 25.2 µM
Structure (SMILES): O=C(NOCc1ccccc1)c1ccc2cccc(O)c2n1

- IC50 [1]: 1.4 µM
Structure (SMILES): Cc1ccc2cccc(NS(=O)(=O)c3cccc(F)c3)c2n1

- IC50 [1]: 0.68 µM
Structure (SMILES): O=C(O)c1ccc2cccc(NS(=O)(=O)c3cccc(F)c3)c2n1

- IC50 [1]: 0.45 µM
Structure (SMILES): O=C(O)c1ccc2cccc(NS(=O)(=O)c3ccc(Cl)cc3)c2n1

- IC50 [1]: 0.52 µM
Structure (SMILES): O=C(O)c1ccc2c(Cl)c(Cl)cc(NS(=O)(=O)c3ccccn3)c2n1

- IC50 [1]: 6.2 µM
Structure (SMILES): O=S(=O)(Nc1cccc2cccnc12)c1cccc(F)c1

- IC50 [5]: 0.61 µM
- inhibition [2]: < 5%
- inhibition [3]: < 5%
- IC50 [1]: 9.1 µM
- inhibition [4]: < 5%
- IC50 [6]: 10.3 µM
- IC50 [7]: 7.38 µM
Structure (SMILES): O=C(O)c1ccc2cccc(O)c2n1

- IC50 [1]: > 1000 µM
Structure (SMILES): Oc1cccc2ccc(-c3ccccc3)nc12

- inhibition [2]: > 90%
- IC50 [1]: 0.83 µM
- Ki [8]: 20.7 µM
- Ratio Ki [9]: 50
Structure (SMILES): O=C(O)c1ccc2cccc(NS(=O)(=O)c3cccc4cccnc34)c2n1

- IC50 [5]: 0.38 µM
- inhibition [2]: > 90%
- inhibition [3]: < 5%
- IC50 [1]: 0.37 µM
- Ki [8]: 0.6 µM
- Ratio Ki [9]: 3
- inhibition [4]: < 5%
- IC50 [6]: 0.24 µM
- IC50 [7]: 1.5 µM
Structure (SMILES): O=C(O)c1ccc2cccc(NS(=O)(=O)c3ccc(C(F)(F)F)cc3[N+](=O)[O-])c2n1

- IC50 [1]: 0.28 µM
Structure (SMILES): O=C(O)c1cc(Cl)c2cccc(NS(=O)(=O)c3ccccn3)c2n1

- IC50 [1]: 0.9 µM
Structure (SMILES): O=C(O)c1ccc2cccc(NS(=O)(=O)C(F)(F)F)c2n1

- IC50 [1]: 1.28 µM
Structure (SMILES): O=C(O)c1ccc2cccc(NS(=O)(=O)Cc3ccccc3)c2n1

- IC50 [1]: 0.44 µM
Structure (SMILES): O=C(O)c1ccc2cccc(NS(=O)(=O)c3c(Cl)cc(Cl)cc3Cl)c2n1

- IC50 [1]: 17.6 µM
Structure (SMILES): COC(=O)c1ccc2cccc(NS(C)(=O)=O)c2n1

- IC50 [5]: 0.43 µM
- inhibition [2]: > 90%
- inhibition [3]: < 5%
- IC50 [1]: 0.71 µM
- Ki [8]: 2.12 µM
- Ratio Ki [9]: 6
- inhibition [4]: < 5%
- IC50 [6]: 1.22 µM
- IC50 [7]: 3.07 µM
Structure (SMILES): O=C(O)c1ccc2cccc(NS(=O)(=O)c3ccccc3)c2n1

- IC50 [1]: 0.75 µM
Structure (SMILES): COC(=O)c1ccc2cccc(NS(=O)(=O)c3ccc(C(F)(F)F)cc3)c2n1

- IC50 [1]: 0.29 µM
Structure (SMILES): O=C(O)c1ccc2c(Cl)ccc(NS(=O)(=O)c3ccccn3)c2n1

- IC50 [1]: 1.41 µM
Structure (SMILES): Cc1ccc(S(=O)(=O)Nc2cccc3ccc(C(=O)O)nc23)cc1

- IC50 [1]: > 1000 µM
Structure (SMILES): O=C(O)c1ccc2c(I)cc(I)c(NS(=O)(=O)c3ccccc3)c2n1

- IC50 [1]: 0.5 µM
Structure (SMILES): O=C(O)c1ccc2cccc(NS(=O)(=O)c3cccc(Cl)c3)c2n1
